Where a name gives a salt, the structure may show the parent alone.
Legend:
human PPARα = biological target: T1, human PPARα (Homo sapiens, UniProt Q07869); assay: GAL4-PPARα luciferase reporter assay in COS-1 cells; assay type: cell-based; details: relative luciferase activity, vehicle (DMSO) control regarded as 1, 24 hours
T1 construct: human PPARα (including amino acid residues 167-468); expressed in transfected cells; host or cells: COS-1
T1 sequence (Q07869 167-468): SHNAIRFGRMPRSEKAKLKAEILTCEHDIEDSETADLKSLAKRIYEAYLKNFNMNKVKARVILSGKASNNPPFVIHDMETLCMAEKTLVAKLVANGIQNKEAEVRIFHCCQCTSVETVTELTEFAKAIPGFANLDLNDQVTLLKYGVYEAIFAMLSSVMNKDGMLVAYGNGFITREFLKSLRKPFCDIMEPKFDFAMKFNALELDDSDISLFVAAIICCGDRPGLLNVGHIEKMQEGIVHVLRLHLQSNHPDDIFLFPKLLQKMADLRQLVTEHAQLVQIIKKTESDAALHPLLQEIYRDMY
Excerpt: (§1) By inserting a gene fragment encoding the ligand binding domain of human PPARα (including amino acid residues 167-468) or a gene fragment encoding the ligand binding domain of human PPARγ (including amino acids residue 204-505) into a multicloning site of expressing vector pM containing DNA binding domain of yeast GAL4 protein (Clonetech), a vector plasmid expressing a fused protein of GAL4 protein DNA binding domain and human PPARα or γ ligand binding domain.
(§2) As a reporter plasmid, pGL3-Basic Vector containing firefly luciferase gene (Promega Corporation) was used wherein Gal4-responsive sequence UAS and rabbit β-globin promoter were inserted.
(§3) For the modification of genetic transformation efficiency, a plasmid containing lacZ gene, pβgal control (Clonetech), was used.
(§4) COS-1 cells were cultured in the phenol red free Dulbecco's Modified Eagles Medium (DMEM) (Gibco) supplemented with 5% activated carbon/dextran stripped fetal bovine serum at 37° C. with 5% carbon dioxide. The COS-1 cells were plated at a concentration of 5×10^4 cells/well into a 24-well plate, and the plate was incubated overnight. The medium was replaced with a fresh medium supplemented without 5% activated carbon/dextran treated fetal bovine serum. Further, the cells were transfected using Lipofectamine plus reagent (Gibco) with plasmid GAL4-PPARα- or γ-expressing plasmid (5 ng), the reporter plasmid (50 ng), pβgal control (350 ng) per well. After incubation for 4 hours, the medium was changed with a fresh medium supplemented with 5% activated carbon/dextran treated fetal bovine serum. Then, the compound of the present invention was added thereto in such an amount that the final concentration thereof is 1 μM or 10 μM. After the cultivation for 24 hours, the cells were lysed with a solution for cell lysis accompanied to the Luciferase Assay System (Promega Corporation). The luciferase activity therein was measured by a luminometer using the reagent for measuring luciferase which was also accompanied to said System. The β-galactosidase activity was measured using a β-galactosidase enzyme assay system (Promega Corporation) to correct the generic transfection efficiency.
(§5) The PPARα- or γ-agonistic activity was expressed as a relative activity where the luciferase activity in the well to which the vehicle (DMSO) was added as control was regarded as 1.

human PPARγ = biological target: T2, human PPARγ (Homo sapiens, UniProt P37231); assay: GAL4-PPARγ luciferase reporter assay in COS-1 cells; assay type: cell-based; details: relative luciferase activity, vehicle (DMSO) control regarded as 1, 24 hours
T2 construct: human PPARγ (including amino acids residue 204-505); expressed in transfected cells; host or cells: COS-1
T2 sequence (P37231 204-505): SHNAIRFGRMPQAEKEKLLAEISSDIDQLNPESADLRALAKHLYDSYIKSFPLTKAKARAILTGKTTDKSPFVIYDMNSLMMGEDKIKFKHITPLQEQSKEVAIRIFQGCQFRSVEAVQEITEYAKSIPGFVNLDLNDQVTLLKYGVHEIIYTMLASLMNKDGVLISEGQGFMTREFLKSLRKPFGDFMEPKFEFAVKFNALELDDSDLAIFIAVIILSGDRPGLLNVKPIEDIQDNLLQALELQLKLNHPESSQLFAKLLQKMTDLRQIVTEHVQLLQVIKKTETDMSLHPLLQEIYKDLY
Excerpt: as §1, §2, §3, §4, §5

male db/db mice = assay: Hypoglycemic activity in db/db mice; assay type: in vivo; details: 30 mg/kg orally once a day for 2 weeks, blood glucose level on the last day
Protocol: The test compounds as disclosed in Examples were dissolved or suspended in a 0.5% carbomethyl cellulose solution, and orally administered to male db/db mice (7 to 8 weeks old) at a final dose of 30 mg/kg once a day for 2 weeks. On the last day, the blood was taken at the tail vein, and immediately thereafter, perchloric acid was added for removing proteins, and the blood glucose level was measured by Glucose CII Test Wako (Wako Pure Industries, Ltd.).
In addition, the hypoglycemic activity was calculated by the following equation.

Cc1ccc(C(=O)c2cccn2C/C=C/c2cccc(COC(C)(C)C(=O)O)c2)cc1 [Example 1B, 2-Methyl-2-[(3-{(1E)-3-[2-(4-methylbenzoyl)-1H-pyrrol-1-yl]prop-1-en-1-yl}-benzyl)oxy]propionic acid]
PPARα-agonistic activity (10 μM) (human PPARα): 8.0 | PPARγ-agonistic activity (10 μM) (human PPARγ): 4.7 | Hypoglycemic Activity (%) (male db/db mice): 21.2%

Cc1ccc(C(=O)c2cccn2C/C=C/c2cccc(COC(C(=O)O)c3ccccc3)c2)cc1 (stereo not shown) [Example 2B, [(3-{(1E)-3-[2-(4-Methylbenzoyl)-1H-pyrrol-1-yl]prop-1-en-1-yl}benzyl)oxy]-(phenyl)acetic acid]
PPARα-agonistic activity (10 μM) (human PPARα): 7.8 | PPARγ-agonistic activity (10 μM) (human PPARγ): 5.6

Cc1ccc(C(=O)c2cccn2C/C=C/c2ccc(COC(C)(C)C(=O)O)cc2)cc1 [Example 3B, 2-Methyl-2-[(4-{(1E)-3-[2-(4-methylbenzoyl)-1H-pyrrol-1-yl]prop-1-en-1-yl}-benzyl)oxy]propionic acid]
PPARα-agonistic activity (10 μM) (human PPARα): 12.6 | PPARγ-agonistic activity (10 μM) (human PPARγ): 7.5 | Hypoglycemic Activity (%) (male db/db mice): 17.8%

Cc1ccc(C(=O)c2cccn2C/C=C/c2cccc(COCC(=O)O)c2)cc1 [Example 4, [(3-{(1E)-3-[2-(4-Methylbenzoyl)-1H-pyrrol-1-yl]prop-1-en-1-yl}benzyl)oxy]acetic acid]
PPARα-agonistic activity (10 μM) (human PPARα): 12.6 | PPARγ-agonistic activity (10 μM) (human PPARγ): 3.4

Cc1ccc(C(=O)c2cccn2C/C=C/c2cccc(CO[C@H](C)C(=O)O)c2)cc1 [Example 5B, (2R)-2-[(3-{(1E)-3-[2-(4-Methylbenzoyl)-1H-pyrrol-1-yl]prop-1-en-1-yl}benzyl)-oxy]propionic acid]
PPARα-agonistic activity (10 μM) (human PPARα): 11.6 | PPARγ-agonistic activity (10 μM) (human PPARγ): 5.4

Cc1ccc(C(=O)c2cccn2C/C=C/c2ccc(CO[C@H](C)C(=O)O)cc2)cc1 [Example 6B, (2R)-2-[(4-{(1E)-3-[2-(4-Methylbenzoyl)-1H-pyrrol-1-yl]prop-1-ene-1-yl}benzyl)-oxy]propionic acid]
PPARα-agonistic activity (10 μM) (human PPARα): 10.1 | PPARγ-agonistic activity (10 μM) (human PPARγ): 5.5 | Hypoglycemic Activity (%) (male db/db mice): 63.3%

Cc1ccc(C(=O)c2cccn2C/C=C/c2cccc(CO[C@@H](C)C(=O)O)c2)cc1 [Example 7B, (2S)-2-[(3-{(1E)-3-[2-(4-Methylbenzoyl)-1H-pyrrol-1-yl]prop-1-en-1-yl}benzyl)-oxy]propionic acid]
PPARα-agonistic activity (10 μM) (human PPARα): 10.8 | PPARγ-agonistic activity (10 μM) (human PPARγ): 2.9

CCC(OCc1cccc(/C=C/Cn2cccc2C(=O)c2ccc(C)cc2)c1)C(=O)O (stereo not shown) [Example 9B, 2-[(3-{(1E)-3-[2-(4-methylbenzoyl)-1H-pyrrol-1-yl]prop-1-en-1-yl}benzyl)oxy]-butyric acid]
PPARα-agonistic activity (10 μM) (human PPARα): 8.6 | PPARγ-agonistic activity (10 μM) (human PPARγ): 5.3

Cc1ccc(C(=O)c2cccn2C/C=C/c2ccc(CO[C@@H](C)C(=O)O)cc2)cc1 [Example 11, (2S)-2-[(4-{(1E)-3-[2-(4-Methylbenzoyl)-1H-pyrrol-1-yl]prop-1-en-1-yl}benzyl)-oxy]propionic acid 1,3-dihydroxy-2-(hydroxymethyl)propan-2-aminium salt]
Hypoglycemic Activity (%) (male db/db mice): 64.4%

Cc1ccc(C(=O)c2nccn2C/C=C/c2ccc(CO[C@H](C)C(=O)O)cc2)cc1 [Example 27]
Hypoglycemic Activity (%) (male db/db mice): 51.0%

COc1ccc(C(=O)c2nccn2C/C=C/c2ccc(CO[C@H](C)C(=O)O)cc2)cc1 [Example 29]
Hypoglycemic Activity (%) (male db/db mice): 43.0%

Cc1ccc(C(=O)c2nc3ccccc3n2C/C=C/c2ccc(COC(C)(C)C(=O)O)cc2)cc1 [Example 38]
Hypoglycemic Activity (%) (male db/db mice): 18.2%

Cc1ccc(C(=O)c2cccn2C/C=C/c2ccc(COCc3nnn[nH]3)cc2)cc1 [compound 51]
PPARα-agonistic activity (10 μM) (human PPARα): 17.7 | PPARγ-agonistic activity (10 μM) (human PPARγ): 8.9
